Assay results from patent US6359009B1, “Substituted anilide insecticidal agents” (BASF Aktiengesellschaft, priority 1998, dated 2002).

System: Diabrotica virgifera virgifera Leconte, 3rd instar western corn rootworm
Assay: Evaluation against 3rd instar western corn rootworm, treated talc/soil jar test, mortality after 5 days
Assay type: in vivo
Conditions: mortality rating 0-9 after 5 days in soil
Method: Test solutions are prepared by dissolving the test compound in a 35% acetone in water mixture to give a concentration of 10,000 ppm. Subsequent dilutions are made with water as needed.
Diabrotica virgifera virgifera Leconte, 3rd instar western corn rootworm
One cc of fine talc is placed in a 30 mL wide-mouth screw-top glass jar. One mL of the appropriate acetone test solution is pipetted onto the talc so as to provide 1.25 mg, 0.25 mg or 0.025 mg of active ingredient per jar. The jars are set under a gentle air flow until the acetone is evaporated. The dried talc is loosened, 1 cc of millet seed is added to serve as food for the insects and 25 mL of moist soil is added to each jar. The jar is capped and the contents thoroughly mixed mechanically. Following this, ten 3rd instar rootworms are added to each jar and the jars are loosely capped to allow air exchange for the larvae. The treatments are held for 5 days when mortality counts are made. Missing larvae are presumed dead, since they decompose rapidly and can not be found.

Row | Compound | Western Corn Rootworm (1 ppm) rating | Western Corn Rootworm (10 ppm) rating | Western Corn Rootworm (50 ppm) rating
1 | CCOCN(C(=O)C(C)(C)C(=O)C(C)C)c1ccc(C(F)(F)F)cc1 [Compound 15, N-(Ethoxymethyl)-α,α,α-trifluoro-2,2,4-trimethyl-3-oxo-p-valerotoluidide] | 8.0 | 9.0 | 9.0
2 | COC(C(C)C)C(C)(C)C(=O)Nc1ccc(C(F)(F)F)cc1 (stereo not drawn) [Compound 16, α,α,α-Trifluoro-3-methoxy-2,2,4-trimethyl-p-valerotoluidide] | 0.0 | 9.0 | 9.0
3 | CCOCOC(C(C)C)C(C)(C)C(=O)Nc1ccc(C(F)(F)F)cc1 (stereo not drawn) [Compound 17, 3-(Ethoxymethoxy)-α,α,α-trifluoro-2,2,4-trimethyl-p-valerotoluidide] | 1.0 | 9.0 | 9.0
4 | CC(C)C(OS(C)(=O)=O)C(C)(C)C(=O)Nc1ccc(C(F)(F)F)cc1 (stereo not drawn) [Compound 18, α,α,α-Trifluoro-3-hydroxy-2,2,4-trimethyl-p-valerotoluidide, methanesulfonate (ester)] | 0.0 | 3.0 | 9.0
5 | C#CCOC(C(C)C)C(C)(C)C(=O)Nc1ccc(C(F)(F)F)cc1 (stereo not drawn) [Compound 19, α,α,α-Trifluoro-2,2,4-trimethyl-3-(2-propynyloxy)-p-valerotoluidide] | 0.0 | 9.0 | 9.0
6 | CC(C)C(OC(=O)CCl)C(C)(C)C(=O)Nc1ccc(C(F)(F)F)cc1 (stereo not drawn) [Compound 20, 3-Hydroxy-α,α,α-trifluoro-2,2,4-trimethyl-p-valerotoluidide, chloroacetate (ester)] | 0.0 | 5.0 | 9.0
7 | CC(C)(C)C(=O)C(C)(C)C(=O)Nc1ccc(C(F)(F)F)cc1 [Compound 21, α,α,α-Trifluoro-2,2,4,4-tetramethyl-3-oxo-p-valerotoluidide] | 0.0 | 9.0 | 9.0
8 | C=CCOC(C(C)C)C(C)(C)C(=O)Nc1ccc(C(F)(F)F)cc1 (stereo not drawn) [Compound 22, 3-(Allyloxy)-α,α,α-trifluoro-2,2,4-trimethyl-p-valerotoluidide] | 0.0 | 9.0 | 9.0
9 | CC(C)OC(C(C)C)C(C)(C)C(=O)Nc1ccc(C(F)(F)F)cc1 (stereo not drawn) [Compound 23, α,α,α-Trifluoro-3-(isopropoxy)-2,2,4-trimethyl-p-valerotoluidide] | 0.0 | 9.0 | 9.0
10 | CCOC(C(C)C)C(C)(C)C(=O)Nc1ccc(C(F)(F)F)cc1 (stereo not drawn) [Compound 24, 3-Ethoxy-α,α,α-trifluoro-2,2,4-trimethyl-p-valerotoluidide] | 0.0 | 9.0 | 9.0
11 | CC(C)C(=O)C1(C(=O)Nc2ccc(C(F)(F)F)cc2)CC1 [Compound 25, α,α,α-Trifluoro-1-isobutyrylcyclopropanecarboxy-p-toluidide] | 0.0 | 0.0 | 7.0
12 | CC(C)C(OC1CCCC1)C(C)(C)C(=O)Nc1ccc(C(F)(F)F)cc1 (stereo not drawn) [Compound 26, 3-(Cyclopentyloxy)-α,α,α-trifluoro-2,2,4-trimethyl-p-valerotoluidide] | 0.0 | 0.0 | 8.0
13 | CCCCCCOC(C(C)C)C(C)(C)C(=O)Nc1ccc(C(F)(F)F)cc1 (stereo not drawn) [Compound 27, α,α,α-Trifluoro-3-(hexyloxy)-2,2,4-trimethyl-p-valerotoluidide] | 0.0 | 0.0 | 9.0
